Measured values as given in patent publication US20080070868A1, “Novel Thiazole Inhibitors of Fructose 1,6-bisphosphatase” (Metabasis Therapeutics, Inc., priority 2004, published 2008).
pIC50: −log10 of the molar value. “Also recorded” adds a separate entry of the source. Read-outs that look alike come from different tables or passages of the source.

Experiments:
[1] = biological target: T1, rat liver FBPase (Rattus norvegicus, UniProt P19112); assay: Inhibition of rat liver FBPase; assay type: biochemical; conditions: partially purified rat liver FBPase; read-out: IC50 (rlFBPase)
T1 construct: This partially purified fraction was used for enzyme assays; from tissue; host or cells: rat liver (45-75% ammonium sulfate fraction of the homogenate)
T1 sequence (P19112 2-363 limits assumed): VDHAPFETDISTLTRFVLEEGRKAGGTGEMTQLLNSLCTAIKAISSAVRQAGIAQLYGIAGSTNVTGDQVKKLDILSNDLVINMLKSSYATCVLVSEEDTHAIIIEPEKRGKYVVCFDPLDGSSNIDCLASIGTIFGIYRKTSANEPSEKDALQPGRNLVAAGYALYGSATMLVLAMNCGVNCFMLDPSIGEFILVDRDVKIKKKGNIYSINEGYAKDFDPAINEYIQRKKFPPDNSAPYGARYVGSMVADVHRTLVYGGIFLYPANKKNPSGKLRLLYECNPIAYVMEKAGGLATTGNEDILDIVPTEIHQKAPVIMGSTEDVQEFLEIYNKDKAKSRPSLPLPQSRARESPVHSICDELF
Procedure: Rat liver FBPase was obtained by homogenizing freshly isolated rat liver in 100 mM Tris-HCl buffer, pH 7.4, containing 1 mM EGTA, and 10% glycerol. The homogenate was clarified by centrifugation, and the 45-75% ammonium sulfate fraction prepared. This fraction was redissolved in the homogenization buffer and desalted on a PD-10 gel filtration column (Biorad) eluted with same. This partially purified fraction was used for enzyme assays.

[2] = biological target: T2, human NAT1 (Homo sapiens, UniProt P18440); assay: N-acetylation by recombinant human NAT1; assay type: in vitro ADME; conditions: for % Conversion NAT1: compound 100 μM, 37° C., 120 min, N-acyl product by HPLC; for susceptibility to N-acetylation by NAT1, in words: human recombinant NAT1
T2 construct: purchased BD Gentest (Bedford, Mass.); host or cells: insect cells
T2 sequence (P18440 1-290): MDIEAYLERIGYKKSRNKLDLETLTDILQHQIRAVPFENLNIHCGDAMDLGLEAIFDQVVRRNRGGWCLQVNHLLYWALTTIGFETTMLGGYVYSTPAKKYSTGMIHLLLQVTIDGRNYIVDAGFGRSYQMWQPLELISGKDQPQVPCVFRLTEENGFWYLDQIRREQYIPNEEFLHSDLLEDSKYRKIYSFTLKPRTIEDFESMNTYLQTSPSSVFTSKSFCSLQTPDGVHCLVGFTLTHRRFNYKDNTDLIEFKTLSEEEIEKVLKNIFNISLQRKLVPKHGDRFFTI
Procedure: (§1) Insect cell-expressed human NAT1 and NAT2 and control insect cytosol were obtained from BD Gentest (Bedford, Mass.). Compounds (100 μM) were incubated in 0.25 mL of NAT reaction cocktail consisting of 25 mM potassium phosphate pH 7.4 (at 25° C.), 1 mM EDTA, 1 mM DTT, 0.5 mM acetyl CoA, 5 mM acetyl-DL-carnitine, 20 u/mL acetyltransferase and either NAT1, NAT2 or control insect cytosol (0.1 mg/mL). Reactions were performed in an Eppendorf Thermomixer (37° C., 120 min.). At 0 and 120 min., 100 μl of each reaction was removed and added to a clean 1.7 mL tube containing 150 μl of 100% methanol. The tubes were vortexed and centrifuged at 14,000 rpm for 10 min. in an Eppendorf microcentrifuge (room temperature, 5 min., 14,000 rpm). The supernatants were analyzed by HPLC (Agilent 1100 series) using a Phenosphere C18 column (5 micron, 150×4.6 mm). The column was equilibrated with 20 mM potassium phosphate pH 4.5 or pH 6.2 (at 25° C.) and eluted with a linear gradient to 80% acetonitrile. The percent conversion of the compounds was calculated from the following equation: area of N-acyl product divided by (area of compound+area of N-acyl product), multiplied by 100.

[3] = biological target: T3, human liver FBPase (Homo sapiens, UniProt P09467); assay: Inhibition of human liver FBPase; assay type: biochemical; conditions: purified recombinant human liver FBPase, 0.150 mM fructose 1,6-bisphosphate, 37° C.; read-out: IC50 (hlFBPase)
T3 construct: made in house; host or cells: E. coli BL21
T3 sequence (P09467 2-338 limits assumed): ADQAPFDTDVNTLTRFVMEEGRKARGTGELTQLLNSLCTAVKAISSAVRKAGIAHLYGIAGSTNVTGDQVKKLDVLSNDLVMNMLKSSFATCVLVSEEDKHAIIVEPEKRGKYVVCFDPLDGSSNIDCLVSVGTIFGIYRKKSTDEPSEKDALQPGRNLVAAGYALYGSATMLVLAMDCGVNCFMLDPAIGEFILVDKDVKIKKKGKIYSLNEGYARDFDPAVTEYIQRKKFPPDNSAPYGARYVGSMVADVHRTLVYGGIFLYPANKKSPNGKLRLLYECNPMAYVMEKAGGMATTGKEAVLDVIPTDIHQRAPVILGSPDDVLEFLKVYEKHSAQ

[4] = biological target: T4, human NAT2 (Homo sapiens, UniProt P11245); conditions: human, 120 min, 100 μM, pH 7.4
T4 sequence (P11245 1-290): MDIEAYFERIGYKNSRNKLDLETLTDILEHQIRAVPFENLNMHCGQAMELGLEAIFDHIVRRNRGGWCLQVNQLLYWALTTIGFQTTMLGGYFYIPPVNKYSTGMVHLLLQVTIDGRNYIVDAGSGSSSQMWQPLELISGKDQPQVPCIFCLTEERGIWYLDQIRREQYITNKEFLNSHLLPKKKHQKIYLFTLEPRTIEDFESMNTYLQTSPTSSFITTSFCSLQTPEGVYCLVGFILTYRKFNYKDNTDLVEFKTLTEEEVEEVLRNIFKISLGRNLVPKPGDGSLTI
Procedure: as §1

[5] = Variability of N-acetylation in human liver S9 fractions; assay type: in vitro ADME; conditions: 100 μM, S9 10 mg/mL protein; donors with high or low N-acetylase activity
Procedure: The reactions are incubated, processed, and analyzed as described in Example C.

[6] = biological target: T4, human NAT2; assay: N-acetylation by recombinant human NAT2
Procedure: as §1

Structure (SMILES) | pIC50 [1] | % Conversion NAT1 [2] [%] | susceptibility to N-acetylation by NAT1, in words [2] | pIC50 [3] | % Conversion NAT2 [4] [%] | conversion to N-acetylated metabolite in human liver S9 from various donors [5] | % Conversion NAT2 ([6]; compound 100 μM, 37° C., 120 min, N-acyl product by HPLC) [%] | susceptibility to N-acetylation by NAT2, in words ([6]; human recombinant NAT2)
CC(C)(C)Cc1sc(N)nc1-c1ccc(P(=O)(O)O)o1 [Compound 3.1, reference compound] | 7.04 | 22.4 | highly susceptible | 7.92 |  |  |  | 
CC(C)Cc1sc(N)nc1-c1ccc(P(=O)(O)O)o1 [Compound 3.6, reference compound] | 6.85 | 51 | highly susceptible |  | 5.9 | high levels |  | 
CC(C)(C)C(=O)c1sc(N)nc1-c1ccc(P(=O)(O)O)o1 [Compound 1.1, {5-[2-amino-5-(2,2-dimethylpropionyl)thiazol-4-yl]-furan-2-yl}phosphonic acid] | 6.72 | 0 | not metabolized; also recorded: insusceptible | 7.51 |  | no conversion | 0 | insusceptible
